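Five concentrations, 48 hours, 96-well plates. TGI: concentration producing complete growth inhibition.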

Nine compounds from PubChem BioAssay (NCI) can be followed below.

Among the test systems are SK-OV-3 ovarian; COLO 205 colon; HL-60(TB) leukemia; LOX IMVI melanoma; HCT-15 colon; OVCAR-3 ovarian; OVCAR-4 ovarian; EKVX NSCLC; SN12C renal; 786-0 renal; OVCAR-8 ovarian; HS 578T breast; M14 melanoma; UACC-62 melanoma; TK-10 renal; SR leukemia; K-562 leukemia; HCC-2998 colon; T-47D breast; HT29 colon.
What all share (assay): NCI anticancer screen, dose series, 48 h

With `O=C1N=NC(=O)N1c1cc(C(F)(F)F)cc(C(F)(F)F)c1`, the TGI in the test with SK-OV-3 ovarian is 16.2 µM; in the test on COLO 205 colon it was 3.35 µM; with HL-60(TB) leukemia, above 100 µM; with LOX IMVI melanoma, 11.7 µM; in the test on HCT-15 colon, 12 µM; in the test with OVCAR-3 ovarian it was above 23 µM. Besides, the TGI stood at 27.5 µM in the test with OVCAR-4 ovarian; 33.2 µM with EKVX NSCLC; 13.8 µM in the test with SN12C renal; 17 µM in the test with 786-0 renal; 13.7 µM with OVCAR-8 ovarian; 20.8 µM in the test with HS 578T breast. In addition, the TGI in the test on M14 melanoma is 24.3 µM; with UACC-62 melanoma it was 18.3 µM; in the test on TK-10 renal, above 42.8 µM; in the test with SR leukemia, above 53.1 µM; with K-562 leukemia, 32.9 µM; in the test with HCC-2998 colon, 14.7 µM. For the same compound, the TGI with T-47D breast was above 30.2 µM; with HT29 colon, 8.1 µM.
For the compound `c1ccc2sc(C3(N4CCC5(CC4)OCCO5)CCCCC3)cc2c1`, the TGI in the test on SK-OV-3 ovarian was above 100 µM; in the test on COLO 205 colon, above 100 µM; with HL-60(TB) leukemia, 54.9 µM; in the test with LOX IMVI melanoma, above 100 µM; in the test with HCT-15 colon it was above 100 µM; in the test with OVCAR-3 ovarian, above 100 µM. The TGI in the test on OVCAR-4 ovarian, with EKVX NSCLC, in the test on SN12C renal, in the test on 786-0 renal, in the test with OVCAR-8 ovarian and in the test on HS 578T breast was above 100 µM in each case. Besides, the TGI in the test on M14 melanoma was above 100 µM; with UACC-62 melanoma, above 100 µM; in the test with TK-10 renal it was above 100 µM; in the test with SR leukemia it was above 100 µM; in the test on K-562 leukemia, above 100 µM; in the test with HCC-2998 colon it was 90.9 µM. The TGI with T-47D breast is above 100 µM; with HT29 colon, 86.4 µM.
For the compound `CC(=O)NC1C(OC2C(CO)OC(OCC3OC(n4ccc(N)nc4=O)C(O)C3O)C(NC(C)=O)C2O)OC(CO)C(O)C1O` (stereo not given), the TGI with SK-OV-3 ovarian, in the test with COLO 205 colon, with HL-60(TB) leukemia, in the test with LOX IMVI melanoma, with HCT-15 colon and in the test on OVCAR-3 ovarian was above 100 µM each time. The TGI with OVCAR-4 ovarian, with EKVX NSCLC, with SN12C renal, with 786-0 renal, in the test with OVCAR-8 ovarian and in the test with HS 578T breast was above 100 µM throughout. Moreover, the TGI in the test with M14 melanoma, in the test with UACC-62 melanoma, in the test on TK-10 renal, in the test with SR leukemia, in the test with K-562 leukemia and in the test on HCC-2998 colon was above 100 µM throughout. The TGI with T-47D breast and with HT29 colon was above 100 µM in each case.
For `CCOC(=O)c1c(-c2ccccc2)nc2c(OC)nccn12`, the TGI in the test with SK-OV-3 ovarian, in the test on COLO 205 colon, in the test with HL-60(TB) leukemia, in the test with LOX IMVI melanoma, in the test with HCT-15 colon and with OVCAR-3 ovarian was above 100 µM in each case. The TGI with OVCAR-4 ovarian, in the test on EKVX NSCLC, with SN12C renal, in the test with 786-0 renal, in the test with OVCAR-8 ovarian and in the test with HS 578T breast was above 100 µM each time. Besides, the TGI with M14 melanoma, with UACC-62 melanoma, in the test with TK-10 renal, with SR leukemia, in the test with K-562 leukemia and in the test on HCC-2998 colon was above 100 µM in each case. The TGI in the test on T-47D breast and in the test with HT29 colon was above 100 µM in each case.
`CCOC(=O)N1CCN(c2nc(C)n(-c3ccccc3)c(=S)c2C#N)CC1`: the TGI was above 100 µM in the test with SK-OV-3 ovarian; above 100 µM in the test with COLO 205 colon; above 66.7 µM with HL-60(TB) leukemia; above 100 µM in the test with LOX IMVI melanoma; above 100 µM in the test on HCT-15 colon; above 100 µM in the test on OVCAR-3 ovarian. In addition, the TGI in the test with OVCAR-4 ovarian, in the test with EKVX NSCLC, in the test on SN12C renal, in the test on 786-0 renal, with OVCAR-8 ovarian and in the test on HS 578T breast was above 100 µM in each case. Besides, the TGI in the test on M14 melanoma, in the test on UACC-62 melanoma, in the test with TK-10 renal, in the test on SR leukemia, with K-562 leukemia and with HCC-2998 colon was above 100 µM in each case. Further, the TGI in the test with T-47D breast and with HT29 colon was above 100 µM each time.
For `Cc1ccc2c(c1)C(C1Cc3cccc(C)c3C1=O)OC2=O` (stereo not given), the TGI in the test on SK-OV-3 ovarian, in the test on COLO 205 colon, with HL-60(TB) leukemia, with LOX IMVI melanoma, in the test on HCT-15 colon and in the test with OVCAR-3 ovarian was above 100 µM throughout. Moreover, the TGI with OVCAR-4 ovarian, in the test on EKVX NSCLC, with SN12C renal, in the test on 786-0 renal, in the test with OVCAR-8 ovarian and in the test with HS 578T breast was above 100 µM throughout. The TGI with M14 melanoma, in the test with UACC-62 melanoma, in the test with TK-10 renal, in the test with SR leukemia, in the test with K-562 leukemia and in the test on HCC-2998 colon was above 100 µM throughout. The TGI in the test with T-47D breast and in the test on HT29 colon was above 100 µM throughout.
With `C=C(C)[C@@H]1CCC2=C[C@H](OC2=O)[C@@]2(C)C[C@@H]2C(=O)/C=C(/C)C(=O)[C@H]1OC(C)=O`, the TGI is above 84.7 µM in the test on SK-OV-3 ovarian; 45.3 µM in the test on COLO 205 colon; above 100 µM with HL-60(TB) leukemia; 41.3 µM with LOX IMVI melanoma; above 55.7 µM in the test with HCT-15 colon; above 50.8 µM in the test on OVCAR-3 ovarian. Besides, the TGI in the test on OVCAR-4 ovarian was above 63.6 µM; in the test on EKVX NSCLC, above 49.8 µM; with SN12C renal, above 56.9 µM; in the test on 786-0 renal it was 30.3 µM; in the test on OVCAR-8 ovarian it was above 68.6 µM; in the test on HS 578T breast, 88.6 µM. The TGI is above 100 µM with M14 melanoma; above 73 µM in the test with UACC-62 melanoma; above 62.7 µM in the test with TK-10 renal; above 37.8 µM with SR leukemia; above 32.2 µM with K-562 leukemia; 43 µM in the test with HCC-2998 colon. Moreover, the TGI with T-47D breast is 26.1 µM; with HT29 colon it was above 48.4 µM.
Consider `CC(=O)OC[C@@]1(C)[C@@H]2[C@@H]3[C@@]4(CO[C@]3(C)C(=O)[C@@]3(O)C[C@H](C)[C@H](OC(C)=O)[C@@H]3[C@H]4OC(C)=O)[C@H](OC(=O)c3ccccc3)C[C@@H]21`, for which the TGI with SK-OV-3 ovarian, with COLO 205 colon, with HL-60(TB) leukemia, in the test on LOX IMVI melanoma, in the test with HCT-15 colon and in the test on OVCAR-3 ovarian was above 100 µM throughout. Besides, the TGI in the test with OVCAR-4 ovarian, in the test with EKVX NSCLC, with SN12C renal, with 786-0 renal, with OVCAR-8 ovarian and in the test on HS 578T breast was above 100 µM in each case. Also, the TGI in the test with M14 melanoma, with UACC-62 melanoma, with TK-10 renal, in the test on SR leukemia, in the test on K-562 leukemia and in the test with HCC-2998 colon was above 100 µM each time. Further, the TGI in the test with T-47D breast and in the test on HT29 colon was above 100 µM each time.
Turning to `COC(=O)C1(Cc2cccc(C)c2)Cc2c(C)cccc2C1=O` (stereo not given), the TGI in the test with SK-OV-3 ovarian, in the test with COLO 205 colon, in the test with HL-60(TB) leukemia, in the test on LOX IMVI melanoma, with HCT-15 colon and with OVCAR-3 ovarian was above 100 µM in each case. Further, the TGI in the test with OVCAR-4 ovarian, in the test on EKVX NSCLC, in the test with SN12C renal, in the test with 786-0 renal, in the test with OVCAR-8 ovarian and in the test with HS 578T breast was above 100 µM each time. In addition, the TGI with M14 melanoma, in the test with UACC-62 melanoma, with TK-10 renal, with SR leukemia, in the test on K-562 leukemia and in the test on HCC-2998 colon was above 100 µM in each case. For the same compound, the TGI in the test with T-47D breast is above 100 µM; in the test with HT29 colon, 89.7 µM.
